Measured values from paper PMC6556873, “Rapid Covalent-Probe Discovery by Electrophile-Fragment Screening” (Journal of the American Chemical Society, 2019).
Like-named read-outs stand apart in the source and are kept apart here.

Legend:
in vitro [1] = test: in vitro; parameters: species or system CCD841, HEK293; details: human, hb2 cells, read-out: HB-2 Cells Viability (%)
PCAF = target: T1, PCAF (Homo sapiens, UniProt Q92831); parameters: Intact protein LC/MS covalent labelling, fragments in pools of five, 200 uM each, 4 °C; details: 24 h, 4 °C, pool of five; 200 µM; covalent
T1 construct: gene KAT2B
T1 sequence (Q92831 whole entry, the tested form may be a part): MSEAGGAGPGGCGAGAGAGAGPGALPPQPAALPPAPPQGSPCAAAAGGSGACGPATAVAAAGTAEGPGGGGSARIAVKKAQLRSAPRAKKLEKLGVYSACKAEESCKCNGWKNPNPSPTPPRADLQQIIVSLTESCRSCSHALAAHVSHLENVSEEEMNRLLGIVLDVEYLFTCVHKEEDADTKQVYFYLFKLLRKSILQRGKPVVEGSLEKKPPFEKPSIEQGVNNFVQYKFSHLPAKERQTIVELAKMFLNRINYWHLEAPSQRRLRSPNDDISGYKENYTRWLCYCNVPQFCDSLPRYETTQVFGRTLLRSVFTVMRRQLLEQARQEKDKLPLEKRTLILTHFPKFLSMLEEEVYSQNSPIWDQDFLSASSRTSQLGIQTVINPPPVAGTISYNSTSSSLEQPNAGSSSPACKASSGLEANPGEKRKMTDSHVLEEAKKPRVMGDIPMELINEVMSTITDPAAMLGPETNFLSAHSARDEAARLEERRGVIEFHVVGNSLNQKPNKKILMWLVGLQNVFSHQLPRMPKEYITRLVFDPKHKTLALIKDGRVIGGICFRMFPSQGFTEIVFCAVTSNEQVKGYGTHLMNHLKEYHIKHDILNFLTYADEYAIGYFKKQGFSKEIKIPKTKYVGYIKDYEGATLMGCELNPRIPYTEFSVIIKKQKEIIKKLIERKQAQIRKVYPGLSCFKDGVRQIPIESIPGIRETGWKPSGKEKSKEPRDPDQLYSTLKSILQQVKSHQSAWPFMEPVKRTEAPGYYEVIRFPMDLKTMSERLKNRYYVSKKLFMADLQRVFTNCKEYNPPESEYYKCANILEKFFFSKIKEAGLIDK

OTUB2 (OTUB2A) = target: T2, OTUB2 (OTUB2A) (Homo sapiens, UniProt Q96DC9); parameters: Intact protein LC/MS covalent labelling, fragments in pools of five, 200 uM each, 4 °C; details: 24 h, 4 °C, pool of five; 200 µM; covalent
T2 construct: full length residues 1-234, E. coli BL21(DE3)-R3, His tag removed by TEV, construct 27312 Da
T2 sequence (Q96DC9 1-234): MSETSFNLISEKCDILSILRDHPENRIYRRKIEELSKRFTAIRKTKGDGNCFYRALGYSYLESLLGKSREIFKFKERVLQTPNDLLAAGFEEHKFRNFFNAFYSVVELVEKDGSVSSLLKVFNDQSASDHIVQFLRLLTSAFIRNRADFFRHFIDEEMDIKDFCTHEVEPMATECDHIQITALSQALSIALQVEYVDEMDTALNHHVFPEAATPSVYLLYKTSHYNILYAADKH

NUDT7 = target: T3, NUDT7 (Homo sapiens, UniProt P0C024); parameters: Intact protein LC/MS covalent labelling, fragments in pools of five, 200 uM each, 4 °C; details: 24 h, 4 °C, pool of five; 200 µM; covalent
T3 construct: residues 14-235, E. coli, pNIC28-Bsa4, N-terminal His6 tag removed by TEV, construct 26672 Da
T3 sequence (P0C024 14-235): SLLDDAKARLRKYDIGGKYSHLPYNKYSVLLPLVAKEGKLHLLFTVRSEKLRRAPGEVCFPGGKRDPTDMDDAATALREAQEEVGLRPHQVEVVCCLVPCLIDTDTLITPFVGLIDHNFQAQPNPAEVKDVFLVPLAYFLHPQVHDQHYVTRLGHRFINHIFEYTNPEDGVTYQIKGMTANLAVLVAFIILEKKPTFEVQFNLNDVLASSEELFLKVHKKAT

BSA = target: T4, BSA (Bos taurus, UniProt P02769); parameters: Intact protein LC/MS covalent labelling, fragments in pools of five, 200 uM each, 4 °C; details: 24 h, 4 °C, pool of five; 200 µM; covalent
T4 construct: gene ALB
T4 sequence (P02769 whole entry, the tested form may be a part): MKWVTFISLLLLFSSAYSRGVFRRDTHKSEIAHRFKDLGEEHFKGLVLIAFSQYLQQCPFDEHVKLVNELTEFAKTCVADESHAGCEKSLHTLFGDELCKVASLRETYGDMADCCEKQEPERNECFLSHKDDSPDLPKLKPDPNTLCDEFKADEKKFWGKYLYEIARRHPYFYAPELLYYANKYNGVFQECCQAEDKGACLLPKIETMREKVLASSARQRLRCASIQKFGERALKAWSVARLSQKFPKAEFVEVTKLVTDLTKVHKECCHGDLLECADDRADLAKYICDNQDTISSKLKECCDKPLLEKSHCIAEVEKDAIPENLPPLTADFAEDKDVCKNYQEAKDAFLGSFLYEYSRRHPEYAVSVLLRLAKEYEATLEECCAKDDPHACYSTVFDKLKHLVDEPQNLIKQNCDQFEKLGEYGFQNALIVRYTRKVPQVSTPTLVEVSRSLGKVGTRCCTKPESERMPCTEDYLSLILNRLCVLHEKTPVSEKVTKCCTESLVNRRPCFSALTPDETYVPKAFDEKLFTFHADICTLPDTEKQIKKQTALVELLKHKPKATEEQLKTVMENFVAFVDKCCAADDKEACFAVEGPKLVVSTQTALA

in vitro [2] = test: in vitro; parameters: species or system HB2, CCD841; details: human, hek293 cells
in vitro [3] = test: in vitro; parameters: species or system HB2, HEK293; details: human, ccd841 cells

Row | PCAF (PCAF) | OTUB2 (OTUB2 (OTUB2A)) | NUDT7 (NUDT7) | BSA (BSA) | Compound | viability at 48 h, 10 µM (in vitro [1]) | viability at 48 h, 10 µM (in vitro [2]) | viability at 48 h, 10 µM (in vitro [3])
1 | 0 | 0.09 | 0.12 | 0 | Cc1nc(-c2ccc(C)c(NC(=O)CCl)c2)n[nH]1 [PCM-0103052] | 57% | 39.1% | 43.4%
2 | 0 | 0 | 0 | 0.08 | C=CC(=O)NC1(C(=O)N2CCN(C)CC2)CCCC1 [PCM-0103054] | 99.9% | 110% | 109%
3 | 0 | 0 | 0 | 0 | Cc1cc(NC(=O)CCl)n(C(C)(C)C)n1 [PCM-0103057] | 76.3% | 58.6% | 61.7%
4 | 0 | 0 | 0 | 0 | C=CC(=O)NC1CCN(C(=O)NCC)C1 (stereo not drawn) [PCM-0103058] | 94.4% | 109% | 93.3%
5 | 0 | 0.07 | 0 | 0 | C=CC(=O)N1CC(Oc2ccc(C#N)cc2)C1 [PCM-0103059] | 98.1% | 73.3% | 90.8%
6 | 0 | 0.14 | 0.28 | 0 | O=C(CCl)NNC(=O)C1CCC1 [PCM-0103061] | 8.2% | 2.3% | 30.9%
7 | 0 | 0 | 0 | 0 | O=C(CCl)NC1CCSC1=O (stereo not drawn) [PCM-0103062] | 97.6% | 90.7% | 88.2%
8 | 0 | 0.35 | 0.07 | 0 | Cl.O=C(CCl)N1CCN(Cc2ccccc2)CC1 [PCM-0103063] | 72.1% | 60.1% | 81.1%

The next lines start with the compound.

Row | Compound | PCAF (PCAF) | OTUB2 (OTUB2 (OTUB2A)) | NUDT7 (NUDT7) | BSA (BSA) | viability at 48 h, 10 µM (in vitro [1]) | viability at 48 h, 10 µM (in vitro [2]) | viability at 48 h, 10 µM (in vitro [3])
9 | O=C(CCl)N1CCN(c2ncc(Cl)cc2Cl)CC1 [PCM-0103022] | 0 | 0 | 0.22 | 0 | 3.6% | 13.4% | 36.4%
10 | O=C(CCl)N1CCc2sccc2C1c1ccccc1 (stereo not drawn) [PCM-0103024] | 0 | 0 | 0.69 | 0 | 4.6% | 1.9% | 3%
11 | C=CC(=O)N1CCC2(CCc3ccccc3O2)C1 (stereo not drawn) [PCM-0103025] | 0 | 0.2 | 0 | 0 | 101% | 103% | 90.8%
12 | CC1CCCCC1N(C)C(=O)CCl (stereo not drawn) [PCM-0103026] | 0 | 0 | 0.12 | 0 | 18.3% | 31.2% | 57%
13 | COC(=O)c1ccc(C)c(NC(=O)CCl)c1 [PCM-0103027] | 0 | 0 | 0.05 | 0 | 34.3% | 22.1% | 54.7%
14 | CC1CCc2c(sc(NC(=O)CCl)c2C(N)=O)C1 (stereo not drawn) [PCM-0103029] | 0 | 0 | 0.09 | 0 | 21% | 18.6% | 63.2%
15 | CC(NC(=O)CCl)c1ccc2c(c1)OCO2 (stereo not drawn) [PCM-0103030] | 0 | 0.28 | 0.12 | 0 | 89.2% | 78.2% | 102%
16 | Cc1ccc2nc(NC(=O)CCl)sc2c1 [PCM-0103031] | 0 | 0.18 | 0.88 | 0 | 70.6% | 79.2% | 74.9%
17 | Cl.O=C(CCl)N1CCN(c2cccc(Cl)c2)CC1 [PCM-0103032] | 0 | 0.21 | 0.22 | 0 | 12% | 58.5% | 71.1%
18 | N#Cc1cccc(NC(=O)CCl)c1 [PCM-0103033] | 0 | 0.23 | 0 | 0 | 6.3% | 7.4% | 19.1%
19 | O=C(CCl)NC(=O)NCC(F)(F)F [PCM-0103037] | 0 | 0.3 | 0 | 0 | 89% | 95.7% | 78.2%
20 | O=C(CCl)N1CC=C(c2ccccc2)CC1 [PCM-0103038] | 0 | 0.09 | 0 | 0 | 90.9% | 89.2% | 86.8%
21 | C=CC(=O)Nc1cc(F)cc(F)c1 [PCM-0103039] | 0 | 0 | 0.06 | 0 | 86.7% | 67.1% | 93.3%
22 | O=C(CCl)Nc1ccc(F)cc1Cl [PCM-0103040] | 0 | 0 | 0 | 0 | 76.9% | 60.3% | 68.7%
23 | C=CC(=O)N1CCCC(c2ncc3n2CCCC3)C1 (stereo not drawn) [PCM-0103042] | 0 | 0 | 0 | 0.11 | 95.6% | 97.1% | 108%
24 | COc1ccc(C)cc1NC(=O)CCl [PCM-0103043] | 0 | 0.27 | 0.06 | 0 | 81.3% | 63.7% | 79.1%
25 | C=CC(=O)NCc1c2c(nn1C)CCCC2 [PCM-0103044] | 0 | 0.08 | 0 | 0 | 97.2% | 74.2% | 98.1%
26 | O=C(CCl)NC1CCOCC1 [PCM-0103045] | 0 | 0 | 0 | 0 | 100% | 110% | 77.7%
27 | CCC1c2ccsc2CCN1C(=O)CCl (stereo not drawn) [PCM-0103051] | 0 | 0 | 0.3 | 0 | 13.5% | 6% | 14%
